Measured values: patent US20140323504A1, “Pyrazolo[4,3-c]Pyridine Derivatives As Kinase Inhibitors” (Cellzome Limited, priority 2011, published 2014)
Where two headings read alike, the source gives them in different places.

What was measured:
[1] = molecular target: T1, BTK (Homo sapiens, UniProt Q06187); assay: Kinobeads assay with quantitative mass spectrometry, BTK; format: binding; conditions: Jurkat/Ramos lysate, read-out: BTK inhibition value (IC50)
T1 construct: purchased ProQinase GmbH, Freiburg, Germany
T1 sequence (Q06187 whole entry): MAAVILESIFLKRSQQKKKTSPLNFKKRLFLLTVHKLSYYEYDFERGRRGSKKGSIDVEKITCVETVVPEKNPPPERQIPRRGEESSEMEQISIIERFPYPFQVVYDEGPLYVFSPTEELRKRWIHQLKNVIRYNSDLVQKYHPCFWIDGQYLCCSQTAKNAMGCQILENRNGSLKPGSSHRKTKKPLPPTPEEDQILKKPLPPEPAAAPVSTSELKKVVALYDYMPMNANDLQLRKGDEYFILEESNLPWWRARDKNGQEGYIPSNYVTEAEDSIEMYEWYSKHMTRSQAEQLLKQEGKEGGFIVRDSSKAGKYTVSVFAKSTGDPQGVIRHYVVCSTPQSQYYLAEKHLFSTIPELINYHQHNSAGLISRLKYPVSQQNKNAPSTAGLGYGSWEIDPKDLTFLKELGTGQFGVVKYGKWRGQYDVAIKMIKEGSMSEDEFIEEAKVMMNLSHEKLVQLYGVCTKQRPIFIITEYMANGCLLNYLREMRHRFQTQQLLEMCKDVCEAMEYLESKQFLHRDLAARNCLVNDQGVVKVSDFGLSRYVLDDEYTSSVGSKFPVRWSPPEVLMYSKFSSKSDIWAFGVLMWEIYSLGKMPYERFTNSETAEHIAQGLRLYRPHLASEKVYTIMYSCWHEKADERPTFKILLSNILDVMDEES
Experimental: (§1) Selected compounds of the present invention as described in the previous examples were tested in a Kinobeads™ assay as described (WO-A 2006/134056; Bantscheff et al., 2007. Nature Bioteclmol. 25, 1035-1044).
(§2) Compounds were incubated with cell lysate aliquots (1:1 mix of Jurkat and Ramos cell lysates) for 45 minutes at 4° C. and allowed to bind to the proteins in the lysate sample. Then the Kinobeads™ affinity matrix was added to capture proteins that were not interacting with the previously added compound. After this two hour incubation step at 4° C. beads were separated from the lysate and bead bound proteins were eluted in SDS sample buffer and subsequently separated by SDS-Polyacrylamide gel electrophoresis. The gel was stained with colloidal Coomassie and stained areas of each gel lane were cut out and subjected to in-gel proteolytic digestion with trypsin. Peptides originating from the different gel areas were labeled with isobaric tagging reagents (TMT reagents, Thermofisher) as shown in Table 7. The TMT reagents are a set of multiplexed, amine-specific, stable isotope reagents that can label peptides in up to six different biological samples enabling simultaneous identification and quantitation of peptides. The combined samples were fractionated using reversed-phase chromatography at pH 11 and fractions were subsequently analyzed with a nano-flow liquid chromatography system coupled online to a tandem mass spectrometer (LC-MSMS) experiment followed by reporter ion quantification in the MSMS spectra (Ross et al., 2004. Mol. Cell. Proteomics 3(12):1154-1169; Dayon et al., 2008. Anal. Chem. 80(8):2921-2931; Thompson et al., 2003. Anal. Chem. 75(8):1895-1904). Further experimental protocols can be found in WO2006/134056 and previous publications (Bantscheff et al., 2007. Nat. Biotechnol. 25, 1035-1044; Bantscheff et al., 2011. Nat. Biotechnol. 29(3):255-265).

[2] = molecular target: T2, BLK (Homo sapiens, UniProt P51451); assay: Kinobeads assay with quantitative mass spectrometry, BLK; format: binding; conditions: Jurkat/Ramos lysate, read-out: BLK inhibition value (IC50)
T2 construct: endogenous in cells; host or cells: 1:1 mix of Jurkat and Ramos cell lysates
T2 sequence (P51451 whole entry): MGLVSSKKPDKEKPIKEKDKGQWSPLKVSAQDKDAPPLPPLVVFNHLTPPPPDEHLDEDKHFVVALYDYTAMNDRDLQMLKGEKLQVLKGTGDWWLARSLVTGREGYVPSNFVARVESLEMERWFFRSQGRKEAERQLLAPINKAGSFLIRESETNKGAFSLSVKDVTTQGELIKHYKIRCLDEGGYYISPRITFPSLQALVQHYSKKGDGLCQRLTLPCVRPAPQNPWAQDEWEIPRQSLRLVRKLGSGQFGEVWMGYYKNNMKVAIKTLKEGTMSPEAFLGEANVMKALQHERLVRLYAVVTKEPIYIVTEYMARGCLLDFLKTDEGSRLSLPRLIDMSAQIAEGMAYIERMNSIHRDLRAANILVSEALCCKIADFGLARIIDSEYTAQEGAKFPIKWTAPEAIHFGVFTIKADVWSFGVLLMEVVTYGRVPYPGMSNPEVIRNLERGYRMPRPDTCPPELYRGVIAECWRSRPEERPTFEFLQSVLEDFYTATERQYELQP
Experimental: as §1, §2

[3] = molecular target: T3, ITK (Homo sapiens, UniProt Q08881); assay: Kinobeads assay with quantitative mass spectrometry, ITK; format: binding; conditions: Jurkat/Ramos lysate, read-out: ITK inhibition value (IC50)
T3 construct: purchased ProQinase GmbH, Freiburg, Germany
T3 sequence (Q08881 1-620): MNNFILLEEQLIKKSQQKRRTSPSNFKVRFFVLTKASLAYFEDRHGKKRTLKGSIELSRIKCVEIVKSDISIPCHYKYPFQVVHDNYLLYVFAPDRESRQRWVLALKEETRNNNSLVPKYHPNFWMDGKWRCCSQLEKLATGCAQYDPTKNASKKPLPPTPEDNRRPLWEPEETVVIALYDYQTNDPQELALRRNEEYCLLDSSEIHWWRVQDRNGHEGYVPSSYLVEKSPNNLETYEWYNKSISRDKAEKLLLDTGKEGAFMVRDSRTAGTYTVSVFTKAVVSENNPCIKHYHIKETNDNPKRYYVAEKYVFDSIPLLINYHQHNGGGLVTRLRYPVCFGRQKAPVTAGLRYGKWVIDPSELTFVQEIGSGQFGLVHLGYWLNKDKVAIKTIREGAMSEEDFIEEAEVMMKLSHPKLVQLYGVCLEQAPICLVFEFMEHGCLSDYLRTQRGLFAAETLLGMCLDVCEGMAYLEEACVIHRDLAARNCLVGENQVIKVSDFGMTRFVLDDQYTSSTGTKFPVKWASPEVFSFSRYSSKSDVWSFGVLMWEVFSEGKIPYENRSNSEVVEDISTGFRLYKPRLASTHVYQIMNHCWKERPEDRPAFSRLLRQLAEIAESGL
Experimental: as §1, §2

[4] = molecular target: T1, BTK; assay: Radiometric protein kinase assay (33PanQinase, ProQinase), BTK; format: biochemical; conditions: read-out: BTK enzyme assay IC50
Experimental: A radiometric protein kinase assay (^33PanQinase® Activity Assay; ProQinase GmbH, Freiburg, Germany) was used for measuring the kinase activity of the protein kinases BLK, BTK, ITK and JAK3. All kinase assays were performed in 96-well FlashPlates™ from PerkinElmer (Boston, Mass., USA) in a 50 μl reaction volume. The reaction cocktail was pipetted in four steps in the following order: • 20 μl of assay buffer (standard buffer) • 5 μl of ATP solution (in H2O) • 5 μl of test compound (in 10% DMSO) • 10 μl of substrate/10 μl of enzyme solution (premixed)
The reaction cocktails were incubated at 30° C. for 60 minutes. The reaction was stopped with 50 μl of 2% (v/v) H3PO4, plates were aspirated and washed two times with 200 μl 0.9% (w/v) NaCl. Incorporation of ^33Pi was determined with a microplate scintillation counter (Microbeta, Wallac). All assays were performed with a BeckmanCoulter/SAGIAN™ Core System.

[5] = test system: STAT5 phosphorylation in IL-2 stimulated YT cells; assay: Cell assay with washout of compounds (pSTAT5, YT cells, MSD); format: cell-based, human; conditions: for IC50: Homo sapiens; for retention of activity after washing: up to 4 hours after washing
Experimental: This time course experiment allows determination as to whether the pharmacological effect of the tested compounds persists over time even after the compound is removed from the cell samples.
Human YT cells were grown as described above. Cells were harvested by centrifugation and resuspended in RPMI0.5% heat-inactivated FBS. 3×10^5 cells were seeded in 60 μl per well in a round-bottomed 96 well plate (BD-Falcon, 353077).
Test compounds were dissolved in DMSO and a 1:3 dilution series (9 steps) was prepared. To generate a dose response curve, 30 μl of fourfold concentrated compound in 4% DMSO/RPMI/0.5% FBS were added to each cell sample in the 96 well plate resulting in a final DMSO concentration of 1% DMSO. Cells were incubated for one hour in a humidified incubator (37° C., 5% CO2). After incubation cells were washed twice by centrifugation and replacement of media (RPMI/0.5% FBS), with the exception of the time 0 plate. Washed cells were incubated for 30 min, 1, 2 and 4 hours in a humidified incubator (37° C., 5% CO2) prior to stimulation with IL-2. To each well 30 μl of a fourfold concentrated IL-2 solution (Recombinant human IL-2, Peprotech 200-02; 120 nM solution in RPMI) was added and incubated for 30 minutes at room temperature. Cells were lysed by adding 30 μl of 5× lysis buffer (MSD lysis buffer) and incubated for 10 minutes at 4° C. with gentle shaking.
The effect of compounds on STATS phosphorylation was determined in lysates using the MSD MULTI-SPOT® 96 4-spot phosphor-STAT5a,b whole cell lysatc kit (MesoScale Discovery, K150IGD-3) according to the manufacturer's protocol. Data were analysed in BioAssay using the nonlinear regression for a sigmoidal dose-response with a variable slope and IC50 values were determined.

[6] = 0.5 h, read-out: pSTAT5 inhibition pIC50, 30 min after washout, IL-2 stimulated YT cells, 30 min after washout (converted)
[7] = 2 h, read-out: pSTAT5 inhibition pIC50, 2 hours after washout, IL-2 stimulated YT cells, 2 hours after washout (converted)
[8] = 4 h, IL-2 stimulated YT cells, 4 hours after washout, read-out: pSTAT5 inhibition pIC50, 4 hours after washout (converted)

Question: Which IC50 [1] does the source give for `C=CC(=O)Nc1cccc(Cn2ncc3cnc(Nc4cnn(C)c4)nc32)c1` [Example 1, N-(3-((6-((1-Methyl-1H-pyrazol-4-yl)amino)-1H-pyrazolo[3,4-d]pyrimidin-1-yl)methyl)phenyl)acrylamide] here?
Answer: 0.012 µM

Question: And the IC50 [2]?
Answer: 0.02 µM

Question: And the IC50 [3]?
Answer: 0.086 µM

Question: And the IC50 [4]?
Answer: 0.02 µM

Question: And the IC50 [5, 6]?
Answer: 0.2 µM

Question: And the IC50 [5, 7]?
Answer: 0.0631 µM

Question: What about the IC50 [5, 8] of the same compound?
Answer: 0.1 µM

Question: What about the “retention of activity after washing” value ([5]; YT cells) of the same compound?
Answer: retain activity for up to 4 hours after washing with some drop in activity

Question: `C#CC(=O)Nc1cccc(Cn2ncc3cnc(Nc4cnn(C)c4)nc32)c1` [Example 3, N-(3-((6-((1-Methyl-1H-pyrazol-4-yl)amino)-1H-pyrazolo[3,4-d]pyrimidin-1-yl)methyl)phenyl)propiolamide] was tested. Which IC50 [1] did it give?
Answer: 0.012 µM

Question: What about the IC50 [2] of the same compound?
Answer: 0.012 µM

Question: What about the IC50 [3] of the same compound?
Answer: 0.012 µM

Question: And the IC50 [4]?
Answer: 0.001 µM

Question: What about the IC50 [5, 6] of the same compound?
Answer: 0.631 µM

Question: What about the IC50 [5, 7] of the same compound?
Answer: 0.0794 µM

Question: And the IC50 [5, 8]?
Answer: 0.126 µM

Question: And the “retention of activity after washing” value ([5]; YT cells)?
Answer: retain activity for up to 4 hours after washing with some drop in activity

Question: With `C=CS(=O)(=O)Nc1cccc(Cn2ncc3cnc(Nc4cnn(C)c4)nc32)c1` [Example 4, N-(3-((6-((1-Methyl-1H-pyrazol-4-yl)amino)-1H-pyrazolo[3,4-d]pyrimidin-1-yl)methyl)phenyl)ethenesulfonamide] as the compound, how does the IC50 [4] read?
Answer: 0.02 µM

Question: Which IC50 [1] does the source give for `C=CC(=O)Nc1cc(Cn2ncc3cnc(Nc4cnn(C)c4)nc32)ccc1F` [Example 2, […]] here?
Answer: 0.072 µM

Question: What about the IC50 [2] of the same compound?
Answer: 0.406 µM

Question: What about the IC50 [3] of the same compound?
Answer: 0.818 µM

Question: And the IC50 [4]?
Answer: 0.323 µM

Question: For `CC(=O)Nc1cccc(Cn2ncc3cnc(Nc4cnn(C)c4)nc32)c1` [compound 2, N-(3-((6-((1-methyl-1H-pyrazol-4-yl)amino)-1H-pyrazolo[3,4-d]pyrimidin-1-yl)methyl)phenyl)acetamide, reference compound], which IC50 [4] is on record?
Answer: 2 µM

Question: And the “activity 30 minutes after the washing of cells” value ([5]; YT cells, 30 minutes after washing)?
Answer: completely lost
